Results published in article PMC9804470, “A Formylglycine‐Peptide for the Site‐Directed Identification of Phosphotyrosine‐Mimetic Fragments” (Chemistry (Weinheim an Der Bergstrasse, Germany), 2022).

Assays:
[1] = system: HGF‐induced tyrosine phosphorylation of ERK 1/2 in HeLa cells; test: Western blot of p-ERK in HGF-stimulated HeLa cells; type: cell-based; details: 1 h treatment, Western blot, DMSO control
Experimental: Cellular experiments: HeLa cells were cultivated in DMEM buffer with 10 % FCS in 75 cm^2 cell culture flasks at 37 °C, 5 % CO2. At confluency of about 75 %, cells were seeded in a density of 250,000 cells/mL in 6‐well plates and incubated for 24 h. Subsequently, medium was removed and replaced by DMEM buffer with 0.1 % BSA (1 mL per well) and incubated for another 16 h. Hepatocyte growth factor (HGF, 20 ng/well) and test compounds in different final concentrations (1 μL, in DMSO) were added. Control wells received the same amount of DMSO (final concentration 0.1 %) or no addition. Plates were incubated for 1 h, then washed with cold PBS and shaken with lysis buffer (mPer reagent ThermoScientific # 78501 with 1 mM NaF, 2 mM Na3VO4, 25× protease inhibitor) for 5 min. Cell lysates were transferred to Eppendorf cups and centrifuged at 4 °C with 10,000 g for 10 min. […] The blot was incubated with anti‐phospo‐ERK as primary antibody (Cell Signaling # 9106, dilution 1 : 2000 in TBS‐Tween/ 2 % BSA) overnight at 4 °C, washed 3×5 min with TBS‐Tween, and incubated with anti‐mouse IgG‐hrp as secondary antibody (Santa Cruz # sc2031, 1 : 6000 in TBS‐ Tween/ 2 % BSA, RT, 1.5 h). The blot was again washed 3×5 min with TBS‐Tween and imaged with the ECL system (ThermoScientific # 34080) at Syngene PXi Imager. From the same lysis sample, under the same conditions, ERK 1/2 and β‐tubulin were blotted. For β‐tubulin, the antibody incubation time was adjusted to 2 h at RT.

mammary gland tumors = details: endogeneous cancer model; cited from earlier work
Excerpt: (§1) Our next goal was to validate the three phosphotyrosine mimetics F1, F2, and F4 identified by fragment ligation screening as substructures of heterocyclic and cell‐penetrating SHP2‐inhibitors. The potent SHP2‐specific inhibitor GS‐493 was selected as a reference compound. […] In combination with a kinase inhibitor, GS‐493 ...

pancreas cancer = details: in combination with a kinase inhibitor; cited from earlier work
Excerpt: as §1

SHP2 signaling = details: cited from earlier work
Excerpt: as §1

O=C1/C(=N\Nc2ccc(S(=O)(=O)O)cc2)C(c2ccc([N+](=O)[O-])cc2)=NN1c1ccc([N+](=O)[O-])cc1 [GS‐493]
Effect on HGF‐induced tyrosine phosphorylation of ERK 1/2 [1]: decreased
Effect on development of mammary gland tumors (mammary gland tumors): able to block the development of mammary gland tumors
Effect on pancreas cancer (pancreas cancer): able to suppress pancreas cancer
Block of SHP2 signaling in cancer cells and animal models (SHP2 signaling): able to block SHP2 signaling
